The source of these data is patent US20260028348A1, “MODULATORS OF TNF-ALPHA ACTIVITY” (Forward Therapeutics, Inc., priority 2023, published 2026).

In this test the test system is HEK Blue™ TNFα reporter cells. Description: TNF-α Induced HEK Blue Cellular Assay. The test is classed as cell-based. Conditions: TNF-α stimulated HEK Blue TNFα reporter cells, 24 hrs, secreted alkaline phosphatase (QUANTI-Blue, 620 nm). The procedure: Test articles were diluted in DMSO and serially diluted into 384 well assay plate (Corning 3765), at final concentrations ranging from […] to 0.5 nM. HEK Blue™ TNFα reporter cells were added at a final density of 10,000 cell per well in assay media [DMEM (Gibco, cat #21063-029), 10% fetal bovine serum (ExcelBio, cat #FND500), 1% Penicillin-Streptomycin (Solarbio, cat #P1400-100]. TNF-α (R&D 210-TA-020/CF) was then added to the assay plate at a final concentration of […]. This plate was then incubated for 24 hrs at 37° C. and 5% CO2. Secreted alkaline phosphatase expression was then measured using QUANTI-Blue™(Invivogen), according to manufacturer instructions and read on an Envision microplate reader at 620 nm.
Inhibition data for test compound over a range of concentration was plotted as percentage inhibition of the test compound (100%=maximum inhibition). IC50 values were determined after correcting for background [(sample read-mean of low control)/(mean of high control-mean of low control)] whereby the low control is DMSO without stimulation and high control is DMSO with stimulation. The IC50 is defined as the concentration of test compound which produces […] and was quantified using the 4 parameter logistic equation to fit the data.
A word on the IC50: it is the midpoint of a concentration-inhibition curve. A low value points to greater potency. `[2H]C([2H])([2H])N1C(=O)c2cccc(OC(F)F)c2[C@H]2C[C@@H]1c1nc3ccc(-c4cnc5c(c4)OC[C@@]5(C)N)c(F)c3n12` (single isomer, unassigned) [Example 65] came in with an IC50 of under 100 nM.
Molecule `CN1C(=O)c2cccc(OC(F)F)c2[C@H]2C[C@@H]1c1nc3ccc(-c4cnc5c(c4)OCC[C@@H]5N)cc3n12` [Example 19, (1R,11R)-5-[(4S)-4-amino-2H,3H,4H-pyrano[3,2-b]pyridin-7-yl]-18-(difluoromethoxy)-12-methyl-2,9,12-triazapentacyclo[9.8.1.0^{2,10}.0^{3,8}.0^{14,19}]icosa-3(8),4,6,9,14(19),15,17-heptaen-13-one] registered an IC50 of under 100 nM.
`[2H]C([2H])([2H])N1C(=O)c2cccc(OC(F)F)c2[C@H]2C[C@@H]1c1nc3ccc(-c4cnc5c(c4)CC[C@@]5(C)O)cc3n12` (single isomer, unassigned) [Example 33] displayed an IC50 of under 100 nM.
Turning to `CN1C(=O)c2cccc(OC(F)F)c2[C@H]2C[C@@H]1c1nc3ccc(-c4cnc5c(c4)CC[C@]5(C)N)cc3n12` (single isomer, unassigned) [Example 23], the IC50 was under 100 nM.
In the case of `[2H]C([2H])([2H])N1C(=O)c2cccc(OC(F)F)c2[C@H]2C[C@@H]1c1nc3ccc(-c4cnc5c(c4)COC[C@]5(O)CC)cc3n12` (single isomer, unassigned) [Example 41], the IC50 lay within 10000 to 30000 nM.
With `N[C@H]1COc2cc(-c3ccc4nc5n(c4c3)[C@@H]3C[C@H]5N(C4CC4)C(=O)c4cccc(OC(F)F)c43)ccc21` [Example 14, (1R,11R)-5-[(3R)-3-amino-2,3-dihydro-1-benzofuran-6-yl]-12-cyclopropyl-18-(difluoromethoxy)-2,9,12-triazapentacyclo[9.8.1.0^{2,10}.0^{3,8}.0^{14,19}]icosa-3(8),4,6,9,14(19),15,17-heptaen-13-one] the figure was under 100 nM; with `[2H]C([2H])([2H])N1C(=O)c2cccc(OC(F)F)c2[C@H]2C[C@@H]1c1nc3ccc(-c4cnc5c(c4)CC[C@]5(C)N)cc3n12` (single isomer, unassigned) [Example 28], under 100 nM; with `[2H]C([2H])([2H])N1C(=O)c2cccc(OC(F)F)c2[C@H]2C[C@@H]1c1nc3ccc(-c4cnc5c(c4)OCCC5O)cc3n12` (stereo partly drawn) [Example 48, (7R,14R)-1-(difluoromethoxy)-11-(4-hydroxy-3,4-dihydro-2H-pyrano[3,2-b]pyridin-7-yl)-6-(methyl-d3)-6,7-dihydro-7,14-methanobenzo[f]benzo[4,5]imidazo[1,2-a][1,4]diazocin-5(14H)-one], under 100 nM.
To `[2H]C([2H])([2H])N1C(=O)c2cccc(OC(F)F)c2[C@H]2C[C@@H]1c1nc3ccc(-c4cnc5c(c4)COCC5(C)N)cc3n12` (stereo partly drawn) [Example 45, (7R,14R)-11-(8-amino-8-methyl-7,8-dihydro-5H-pyrano[4,3-b]pyridin-3-yl)-1-(difluoromethoxy)-6-(methyl-d3)-6,7-dihydro-7,14-methanobenzo[f]benzo[4,5]imidazo[1,2-a][1,4]diazocin-5(14H)-one] belongs 100 to 1000 nM.
With `[2H]C([2H])([2H])N1C(=O)c2cccc(OC(F)F)c2[C@H]2C[C@@H]1c1nc3ccc(-c4cnc5c(c4)OC[C@]5(C)O)c(F)c3n12` (single isomer, unassigned) [Example 54] the figure was under 100 nM.
`[2H]C([2H])([2H])N1C(=O)c2cccc(OC(F)F)c2[C@H]2C[C@@H]1c1nc3ccc(-c4cnc5c(c4)CC[C@@]5(C)N)cc3n12` (single isomer, unassigned) [Example 29] registered an IC50 of under 100 nM.
Turning to `[2H]C([2H])([2H])N1C(=O)c2cccc(OC(F)F)c2[C@H]2C[C@@H]1c1nc3cc(F)c(-c4cnc5c(c4)OC[C@]5(C)N)cc3n12` (single isomer, unassigned) [Example 62], the IC50 is under 100 nM.
For the molecule `[2H]C([2H])([2H])N1C(=O)c2cccc(OC(F)F)c2[C@H]2C[C@@H]1c1nc3ccc(-c4cnc5c(c4)OC[C@]5(C)N)nc3n12` (single isomer, unassigned) [Example 60], the IC50 is 100 to 1000 nM.
On to `CC1(O)CCc2cc(-c3ccc4nc5n(c4c3)[C@@H]3C[C@H]5NC(=O)c4cccc(OC(F)F)c43)cnc21` (stereo partly drawn) [Example 3, (1R,11R)-18-(difluoromethoxy)-5-{7-hydroxy-7-methyl-5H,6H-cyclopenta[b]pyridin-3-yl}-2,9,12-triazapentacyclo[9.8.1.0^{2,10}.0^{3,8}.0^{14,19}]icosa-3(8),4,6,9,14(19),15,17-heptaen-13-one], for which the IC50 is under 100 nM.
With `[2H]C([2H])([2H])N1C(=O)c2cccc(OC(F)F)c2[C@H]2C[C@@H]1c1nc3ccc(-c4cnc5c(c4)OC[C@]5(C)N)cc3n12` (single isomer, unassigned) [Example 55] the figure was under 100 nM; with `[2H]C([2H])([2H])N1C(=O)c2cccc(OC(F)F)c2[C@H]2C[C@@H]1c1nc3ccc(-c4cnc5c(c4)OCC[C@]5(C)O)c(F)c3n12` (single isomer, unassigned) [Example 52], under 100 nM; with `[2H]C([2H])([2H])N1C(=O)c2cccc(OC(F)F)c2[C@H]2C[C@@H]1c1nc3ccc(-c4cnc5c(c4)OCC[C@@]5(C)O)cc3n12` (single isomer, unassigned) [Example 35], under 100 nM.
With `CN1C(=O)c2cccc(OC(F)F)c2[C@H]2C[C@@H]1c1nc3ccc(-c4cc(F)c5c(c4)CC[C@@H]5N)cc3n12` [Example 7, (1R,11R)-5-[(1S)-1-amino-7-fluoro-2,3-dihydro-1H-inden-5-yl]-18-(difluoromethoxy)-12-methyl-2,9,12-triazapentacyclo[9.8.1.0^{2,10}.0^{3,8}.0^{14,19}]icosa-3(8),4,6,9,14(19),15,17-heptaen-13-one] the figure was under 100 nM.
With `[2H]C([2H])([2H])N1C(=O)c2cccc(OC(F)F)c2[C@H]2C[C@@H]1c1nc3ccc(-c4cnc5c(c4)OCC[C@]5(C)O)nc3n12` (single isomer, unassigned) [Example 70] the figure was 100 to 1000 nM.
In turn, `[2H]C([2H])([2H])N1C(=O)c2cccc(OC(F)F)c2[C@H]2C[C@@H]1c1nc3ccc(-c4cnc5c(c4)OCC[C@]5(C)O)cc3n12` (single isomer, unassigned) [Example 34] gave an IC50 of under 100 nM.
As for `[2H]C([2H])([2H])N1C(=O)c2cccc(OC(F)F)c2[C@H]2C[C@@H]1c1nc3ccc(-c4cnc5c(c4)OCC[C@@]5(C)O)nc3n12` (single isomer, unassigned) [Example 69], the IC50 was 10000 to 30000 nM.
To `[2H]C([2H])([2H])N1C(=O)c2cccc(OC(F)F)c2[C@H]2C[C@@H]1c1nc3ccc(-c4cnc5c(c4)OCC[C@@]5(C)O)c(F)c3n12` (single isomer, unassigned) [Example 51] belongs under 100 nM.
With `CN1C(=O)c2cccc(OC(F)F)c2[C@H]2C[C@@H]1c1nc3ccc(-c4cnc5c(c4)CC[C@@]5(C)O)cc3n12` (single isomer, unassigned) [Example 11] the figure was under 100 nM; with `CN1C(=O)c2cccc(OC(F)F)c2[C@H]2C[C@@H]1c1nc3ccc(-c4cnc5c(c4)CC[C@]5(N)CO)cc3n12` (single isomer, unassigned) [Example 36], under 100 nM; with `[2H]C([2H])([2H])N1C(=O)c2cccc(OC(F)F)c2[C@H]2C[C@@H]1c1nc3ccc(-c4cnc5c(c4)COC[C@@]5(C)O)cc3n12` (single isomer, unassigned) [Example 39], 10000 to 30000 nM.
To `CN1C(=O)c2cccc(OC(F)F)c2[C@H]2C[C@@H]1c1nc3ccc(-c4ccc5c(c4)OCC[C@@H]5N)cc3n12` [Example 10, (1R,11R)-5-[(4S)-4-amino-3,4-dihydro-2H-1-benzopyran-7-yl]-18-(difluoromethoxy)-12-methyl-2,9,12-triazapentacyclo[9.8.1.0^{2,10}.0^{3,8}.0^{14,19}]icosa-3(8),4,6,9,14(19),15,17-heptaen-13-one] belongs under 100 nM; to `N[C@H]1COc2cc(-c3ccc4nc5n(c4c3)[C@@H]3C[C@H]5NC(=O)c4cccc(OC(F)F)c43)ccc21` [Example 4, (1R,11R)-5-[(3R)-3-amino-2,3-dihydro-1-benzofuran-6-yl]-18-(difluoromethoxy)-2,9,12-triazapentacyclo[9.8.1.0^{2,10}.0^{3,8}.0^{14,19}]icosa-3(8),4,6,9,14(19),15,17-heptaen-13-one], under 100 nM; to `CN1C(=O)c2cccc(OC(F)F)c2[C@H]2C[C@@H]1c1nc3ccc(-c4cnc5c(c4)CCC5(C)O)cc3n12` (stereo partly drawn) [Example 1, (1R,11R)-18-(difluoromethoxy)-5-{7-hydroxy-7-methyl-5H,6H-cyclopenta[b]pyridin-3-yl}-12-methyl-2,9,12-triazapentacyclo[9.8.1.0^{2,10}.0^{3,8}.0^{14,19}]icosa-3(8),4,6,9,14(19),15,17-heptaen-13-one], under 100 nM.
In the case of `CN1C(=O)c2cccc(OC(F)F)c2[C@H]2C[C@@H]1c1nc3ccc(-c4ccc5c(c4)CC[C@H]5N)cc3n12` [Example 9, (1R,11R)-5-[(1R)-1-amino-2,3-dihydro-1H-inden-5-yl]-18-(difluoromethoxy)-12-methyl-2,9,12-triazapentacyclo[9.8.1.0^{2,10}.0^{3,8}.0^{14,19}]icosa-3(8),4,6,9,14(19),15,17-heptaen-13-one], the half-maximal inhibitory concentration (IC50) is under 100 nM.
To `[2H]C([2H])([2H])N1C(=O)c2cccc(OC(F)F)c2[C@H]2C[C@@H]1c1nc3ccc(-c4cnc5c(c4)CC[C@@]5(C)O)nc3n12` (single isomer, unassigned) [Example 67] belongs 10000 to 30000 nM.
